In patent US7629376B2, “3-substituted-5- and 6-aminoalkyl indole-2-carboxylic acid amides and related analogs as inhibitors of casein kinase I” (Aventis Pharmaceuticals Inc., priority 2004, dated 2009):
pKi: −log10 of the molar value.

What was measured:
[1] = system: Mper1-luc Rat-1 fibroblasts (P2C4); assay: Cellular Circadian Assay (Mper1-luc reporter period lengthening); assay type: cell-based; conditions: effective micromolar concentration that induces a 1 hour lengthening of period
Protocol: Cellular Circadian Assay Experimental Procedures
Stable transfection: Co-transfect Rat-1 fibroblast cultures at 30-50% confluence with vectors containing the Zeocin resistance selectable marker for stable transfection and an mPer1 promoter-driven luciferase reporter gene. After 24-48 hours, split the cultures onto 96 well plates and maintain in growth media supplemented with 50-100 μg/mL Zeocin (Invitrogen #45-0430) for 10-14 days. Assess Zeocin-resistant stable transfectants for reporter expression by supplementing growth media with 100 μM luciferin (Promega #E1603) and assaying luciferase activity on a TopCount scintillation counter (Packard Model #C384V00). […] Select Mper1-luc Rat-1 fibroblasts clone P2C4 for compound testing.
After synchronization, rinse cultures with 100 μL EMEM (Cellgro #10-010-CV) for 10 minutes at room temperature. […] Add compounds to be tested for circadian effects to CO2-independent media in 0.3% DMSO (final concentration).
Estimate in vivo luciferase activity by measuring relative light output on a TopCount scintillation counter (Packard Model #C384V00). Transfer plates from incubator to reader using an ORCA robotic arm (Beckman Instruments) and SAMI-NT automated scheduling software (Version 3.3; SAGIAN/Beckman Instruments).
Data Analysis Use Microsoft Excel and XLfit (Version 2.0.9; IDBS) to import, manipulate and graph data. Perform period analysis either by determining the interval between relative light output minima over several days or by Fourier Transform. […] Analyze the data by fitting a hyperbolic curve to the data expressed as period change (y-axis) versus the concentration of test compound (x-axis) in XLfit and interpolate the EC ? t+1h from this curve.

[2] = biological target: T1, casein kinase 1ε (Homo sapiens, UniProt P49674); assay: Casein Kinase Epsilon 33P-ATP Filter Plate Assay for Screening CK1ε Inhibitors; assay type: biochemical
T1 construct: made in house
T1 sequence (P49674 whole entry): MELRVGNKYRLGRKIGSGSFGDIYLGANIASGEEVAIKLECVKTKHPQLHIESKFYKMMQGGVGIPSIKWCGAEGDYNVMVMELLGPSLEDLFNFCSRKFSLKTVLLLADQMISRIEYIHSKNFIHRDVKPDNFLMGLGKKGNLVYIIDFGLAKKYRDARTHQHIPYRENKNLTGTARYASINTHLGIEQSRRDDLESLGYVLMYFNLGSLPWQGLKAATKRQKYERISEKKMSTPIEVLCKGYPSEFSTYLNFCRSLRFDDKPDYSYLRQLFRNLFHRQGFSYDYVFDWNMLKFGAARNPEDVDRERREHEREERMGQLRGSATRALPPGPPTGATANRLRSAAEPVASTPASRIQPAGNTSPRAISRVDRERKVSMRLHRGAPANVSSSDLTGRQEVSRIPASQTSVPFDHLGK
Protocol: Casein Kinase Epsilon ^33P-ATP Filter Plate Assay for Screening CK1ε Inhibitors
Purpose: This assay measures the ability of compounds to inhibit the phosphorylation of the substrate casein by the enzyme casein kinase 1ε using an in vitro ^33P-ATP filtration assay.
The above are stored as 100 μL aliquots at minus 80° C. • Compounds: • Supply compounds for testing as frozen 10 mM compound stock dissolved in 100% DMSO. Assay Conditions: • Final total assay volume per well is equal to 50 μL that one prepares as follows: • 5 μL of diluted compound stock (10, 1, 0.1, 0.01 or 0.001 μM), • 5 μL of dephosphorylated casein final concentration 0.2 μg/μL, • 20 μL of CK1ε final concentration 3 ng/μL, and • 20 μL of γ-^33P-ATP final concentration 0.02 μCi/μL mixed with cold ATP (10 μM final). Methodology: • 1. Prepare 500 mL of fresh assay buffer: 50 mM Tris pH 7.5, 10 nm MgCl2, 2 mM DTT and 1 mM EGTA • 2. Obtain compounds to be evaluated as 10 μL of 10 mM stock dissolved in 100% DMSO. Use a Biomek 2000 liquid handling robot, make serial dilutions to yield 10, 1, 0.1, 0.01 and 0.001 μM final compound dilutions added as 5 μL additions to Falcon U bottom plates. […] A routine screening assay will consist of 32 compounds, which equals 4 assay plates. • 3.
• 4. Add 5 μL of compound as indicated, then add 5 μL of dephosphorylated casein (dissolved in distilled H20) (0.2 μg/μL) and 20 μL CK1ε (3 ng/μL) to the appropriate wells. • 5. Finally add 20 μL γ-^33P-ATP (0.02 μCi/μL)/10 μM cold ATP (equals approximately 2×10^6 CPM per well). • 6. Vortes the Falcon U-Bottom assay plate containing the above 50 μL reaction volume and then incubate at room temperature for 2 hours. • 7. At the end of 2 hours, stop the reaction by the addition of 65 μL of ice cold 2 mM cold ATP (made up in assay buffer) to the assay plates using a Beckman Multimek. • 8. At the same time add 25 μL 100% ice cold TCA made up in distilled H20 to a matching number of Millipore MAPH filter plates. • 9. Using a handheld 8-channel pipettor, transfer 100 μL of the reaction mixture from the Falcon U-Bottom Plate to the Millipore MAPH filter plates presoaked with TCA. • 10. Mix the Millipore MAPH filter plates gently and allow to sit at room temperature for at least 30 minutes to precipitate the proteins. • 11. After 30 minutes, place the filter plates on a Millipore vacuum manifold and filter at no more than 8 mm Hg as the MAPH filters tend to “air lock” at higher vacuum settings. • 12. […] Allow the plates to dry overnight at room temperature. The next day add 40 μL Packard Microscint-20 Scintillation Fluid per well using a Titertek Multidrop dispenser; seal the plates and count for 2 minutes/well in a Packard Topcount NXT Scintillation Counter (to provide CPM values/well). Calculation: • 1. Import Counts Per Minute (CPM) data into a proprietary data calculation and archiving database (Activity Base by IDBS version 5.0). • 2. Column 1 for each plate reflects total phosphorylation activity of the enzyme in the absence of any inhibiting compound and thus represents 100%. Column 12 reflects any nonspecific phosphorylation/retained radioactivity activity in the absence of inhibiting compound and enzyme. Typically one observes approximately 1% of Total CPMs that are “nonspecific”. • 3.

pKi [2] | melting point | Molecule | Cell Assay ECΔτ1h [1]
– | – | 3-(3-Chlorophenylsulfanyl)-5-methylaminomethyl-1H-indole-2-carboxylic acid amide | 5.67 µM
– | – | 3-(3-Fluorophenylsulfanyl)-5-methylaminomethyl-1H-indole-2-carboxylic acid amide [Ie] | 3.34 µM
5.63 | 118 to 121 °C | CC(C)(C)OC(=O)NCc1ccc2c(Sc3ccccc3)c(C(N)=O)[nH]c2c1 [IIb, (2-Carbamoyl-3-phenylsulfanyl-1H-indol-6-ylmethyl)-carbamic acid tert-butyl ester] | –
6.24 | – | Cc1ccccc1CNCc1ccc2c(Sc3ccccc3)c(C(N)=O)[nH]c2c1 [IIz, 6-[(2-Methylbenzylamino)methyl]-3-phenylsulfanyl-1H-indole-2-carboxylic acid amide] | –
< 5.00 | – | COc1cc(C#N)c(NCc2ccc3[nH]c(C(N)=O)c(Sc4ccccc4)c3c2)cc1OC [Iab, 5-[(2-Cyano-4,5-dimethoxyphenylamino)methyl]-3-phenylsulfanyl-1H-indole-2-carboxylic acid amide] | –
~5.00 | – | NC(=O)c1[nH]c2ccc(CNc3cccc(C(F)(F)F)c3)cc2c1Sc1ccccc1 [Iac, 3-Phenylsulfanyl-5-[(3-trifluoromethyl-phenylamino)methyl]-1H-indole-2-carboxylic acid amide] | –
7.05 | – | CCNCc1ccc2[nH]c(C(N)=O)c(Sc3ccccc3)c2c1 [Iad, 5-Ethylaminomethyl-3-phenylsulfanyl-1H-indole-2-carboxylic acid amide] | –
6.24 | – | CCCNCc1ccc2[nH]c(C(N)=O)c(Sc3ccccc3)c2c1 [Iae, 3-Phenylsulfanyl-5-propylaminomethyl-1H-indole-2-carboxylic acid amide] | –
6.41 | – | CC(NCc1ccc2[nH]c(C(N)=O)c(Sc3ccccc3)c2c1)C(N)=O (centres unmarked) [Iaf, 5-[(1-Carbamoylethylamino)methyl]-3-phenylsulfanyl-1H-indole-2-carboxylic acid amide] | –
5.65 | – | COc1cccc(NCc2ccc3[nH]c(C(N)=O)c(Sc4ccccc4)c3c2)c1 [Iag, 5-[(3-Methoxyphenylamino)methyl]-3-phenylsulfanyl-1H-indole-2-carboxylic acid amide] | –
5.37 | – | CCCCc1ccc(NCc2ccc3[nH]c(C(N)=O)c(Sc4ccccc4)c3c2)cc1 [Iah, 5-[(4-Butylphenylamino)methyl]-3-phenylsulfanyl-1H-indole-2-carboxylic acid amide] | –
6.27 | – | CC(C)NCc1ccc2[nH]c(C(N)=O)c(Sc3ccccc3)c2c1 [Iaj, 5-(Isopropylaminomethyl)-3-phenylsulfanyl-1H-indole-2-carboxylic acid amide] | –
6.15 | – | NC(=O)c1[nH]c2ccc(CNCc3ccccc3)cc2c1Sc1ccccc1 [If, 5-(Benzylaminomethyl)-3-phenylsulfanyl-1H-indole-2-carboxylic acid amide] | –
5.35 | – | CNCc1ccc2c(c1)c(Sc1ccccc1)c(C(N)=O)n2C [Ig, 1-Methyl-5-methylaminomethyl-3-phenylsulfanyl-1H-indole-2-carboxylic acid amide] | –
5.76 | – | NC(=O)c1[nH]c2ccc(CN3CCC(CO)CC3)cc2c1Sc1ccccc1 [Ih, 5-(4-Hydroxymethylpiperidin-1-ylmethyl)-3-phenylsulfanyl-1H-indole-2-carboxylic acid amide] | –
6.62 | – | NC(=O)c1[nH]c2ccc(CN3CCOCC3)cc2c1Sc1ccccc1 [Ii, 5-Morpholin-4-ylmethyl-3-phenylsulfanyl-1H-indole-2-carboxylic acid amide] | –
6.70 | – | CCCNCc1ccc2[nH]c(C(N)=O)c(Sc3ccccc3)c2c1 [Ij, 3-Phenylsulfanyl-5-propylaminomethyl-1H-indole-2-carboxylic acid amide] | –
7.03 | – | CCCCNCc1ccc2[nH]c(C(N)=O)c(Sc3ccccc3)c2c1 [Ik, 5-Butylaminomethyl-3-phenylsulfanyl-1H-indole-2-carboxylic acid amide] | –
6.06 | – | NC(=O)c1[nH]c2ccc(CN3CCCCC3)cc2c1Sc1ccccc1 [Il, 3-Phenylsulfanyl-5-piperidin-1ylmethyl-1H-indole-2-carboxylic acid amide] | –
~5.00 | – | NC(=O)c1[nH]c2ccc(CN3CCCC(C(N)=O)C3)cc2c1Sc1ccccc1 (centres unmarked) [Io, 5-(3-Carbamoylpiperidin-1-ylmethyl)-3-phenylsulfanyl-1H-indole-2-carboxylic acid amide] | –
6.22 | – | NC(=O)c1[nH]c2ccc(CNc3ccc4ncccc4c3)cc2c1Sc1ccccc1 [Iu, 3-Phenylsulfanyl-5-(quinolin-6-ylaminomethyl)-1H-indole-2-carboxylic acid amide] | –
6.44 | – | CC(CO)(CO)NCc1ccc2[nH]c(C(N)=O)c(Sc3ccccc3)c2c1 [Iv, 5-[(2-Hydroxy-1-hydroxymethyl-1-methyl-ethylamino)methyl]-3-phenylsulfanyl-1H-indole-2-carboxylic acid amide] | –
7.19 | – | NC(=O)c1[nH]c2ccc(CN3CCCC3CO)cc2c1Sc1ccccc1 (centres unmarked) [Iw, 5-(2-Hydroxymethyl-pyrrolidin-1-ylmethyl)-3-phenylsulfanyl-1H-indole-2-carboxylic acid amide] | –
6.89 | 192.7 to 193.6 °C | CC(CO)NCc1ccc2[nH]c(C(N)=O)c(Sc3ccccc3)c2c1 (centres unmarked) [Ix, 5-[(2-Hydroxy-1-methyl-ethylamino)methyl]-3-phenylsulfanyl-1H-indole-2-carboxylic acid amide] | –

Molecule | pKi [2] | melting point | Cell Assay ECΔτ1h [1]
NCc1ccc2[nH]c(C(N)=O)c(Sc3ccccc3)c2c1 [Ia, 5-Aminomethyl-3-phenylsulfanyl-1H-indole-2-carboxylic acid amide] | 7.15 | – | 0.44 µM
NC(=O)c1[nH]c2ccc(CN3CCN(c4ccc(F)cc4)CC3)cc2c1Sc1ccccc1 [Iaa, 5-[4-(4-Fluorophenyl)piperazin-1-ylmethyl]-3-phenylsulfanyl-1H-indole-2-carboxylic acid amide] | < 5.00 | – | –
NC(=O)c1[nH]c2ccc(CNc3ccccc3F)cc2c1Sc1ccccc1 [Iai, 5-[(2-Fluorophenylamino)methyl]-3-phenylsulfanyl-1H-indole-2-carboxylic acid amide] | 5.16 | – | 6.91 µM
CCCCCNCc1ccc2[nH]c(C(N)=O)c(Sc3ccccc3)c2c1 [Im, 5-Pentylaminomethyl-3-phenylsulfanyl-1H-indole-2-carboxylic acid amide] | 7.19 | – | 4.55 µM
NC(=O)c1[nH]c2ccc(CN3CCN(c4ncccn4)CC3)cc2c1Sc1ccccc1 [Ip, 3-Phenylsulfanyl-5-(4-pyrimidin-2-yl-piperazin-1-ylmethyl)-1H-indole-2-carboxylic acid amide] | 7.13 | – | 1.87 µM
NC(=O)c1[nH]c2ccc(CN3CCN(CC=Cc4ccccc4)CC3)cc2c1Sc1ccccc1 [Iq, 5-[4-(3-Phenylpropenyl)piperazin-1-ylmethyl]-3-phenylsulfanyl-1H-indole-2-carboxylic acid amide] | 6.51 | – | >3 µM
CC(C)(C)OC(=O)N1CCCN(Cc2ccc3[nH]c(C(N)=O)c(Sc4ccccc4)c3c2)CC1 [Ir, 4-(2-Carbamoyl-3-phenylsulfanyl-1H-indol-5-ylmethyl)-[1,4]diazepane-1-carboxylic acid tert-butyl ester] | 6.89 | – | >10 µM
NC(=O)c1[nH]c2ccc(CN3CCCNCC3)cc2c1Sc1ccccc1 [Is, 5-[1,4]Diazepan-1-ylmethyl-3-phenylsulfanyl-1H-indole-2-carboxylic acid amide] | 6.92 | – | 7.85 µM
NC(=O)c1[nH]c2ccc(CNC3CC4CCC3C4)cc2c1Sc1ccccc1 (centres unmarked) [It] | 6.35 | – | 2.70 µM
NC(=O)c1[nH]c2ccc(CN3CCC4(CC3)OCCO4)cc2c1Sc1ccccc1 [Iz, 5-(1,4-Dioxa-8-aza-spiro[4,5]dec-8-ylmethyl)-3-phenylsulfanyl-1H-indole-2-carboxylic acid amide] | 6.49 | – | –
